Results on 11 compounds are retold here after patent publication US4338451A, “5-Hydroxymethyl oxazolidinones” (Delalande S.A., priority 1977, dated 1982).

In data set [1] the test system is ptosis observed one hour after an intravenous injection (2 mg/kg) of reserpine. Briefly: Test B: antagonism of the ptosis caused by reserpine in mice. It is filed as in vivo. The note with it: Mus musculus, po, 1 h, p.o., reserpine 2 mg/kg intravenous, read-out: Test B ED 50. How it is done:
Antagonism with respect to the ptosis observed one hour after an intravenous injection (2 mg/kg) of reserpine given to mice, following the protocol described by C.

For data set [2], the system named is generalized trembling caused by an interperitoneal injection (200 mg/kg) of dl-5-hydroxytryptophane. Briefly: Test A: potentiation in mice of generalized trembling caused by dl-5-hydroxytryptophane. In kind it is in vivo. The note with it: Mus musculus, po, dl-5-hydroxytryptophane 200 mg/kg intraperitoneal, read-out: Test A ED 50. Here is the method: Potentiation in mice of generalized trembling caused by an interperitoneal injection (200 mg/kg) of dl-5-hydroxytryptophane, following the protocol described by C. GOURET and G. RAYNAUD in J. Pharmacol. (Paris), (1974) 5, 231.

Data set [3] has as its system pontogeniculo-occipital points (P.G.O.) caused by an intravenous injection (0.5 mg/kg) of reserpine. Briefly: Test C: reduction in the density of pontogeniculo-occipital points (P.G.O.) caused by reserpine in cats. In kind it is in vivo. Particulars: Felis catus, ip, reserpine 0.5 mg/kg intravenous, read-out: Test C ED 50. Here is the method: Reduction in the density of pontogeniculo-occipital points (P.G.O.) caused by an intravenous injection (0.5 mg/kg) of reserpine given to cats, following the protocol described by A. COSTON and C. GOURET in J. Pharmacol. (Paris) (1976), 7, 409.

The nature of data set [4]: Acute toxicity in mice. The note with it: mouse, in vivo, po.

Each structure is given as a SMILES string. Where only a bound is given, the exact number is not on record here.

Regarding `O=C1OC(CO)CN1c1ccc(OCc2cccc(Br)c2)cc1` (centres unmarked) [760 557], the ED50 in data set [1] turned out to be 3.3 mg/kg; in data set [2], 7.3 mg/kg; in data set [3], 110 mg/kg. The compound further showed a mortality in data set [4] (1000 mg/kg) of 0%.
Turning to `CC(=O)COc1ccc(N2CC(CO)OC2=O)cc1` (centres unmarked) [760 652, 3-(p-acetylmethyloxy) 5-hydroxymethyl 2-oxazolidinone], the mortality in data set [4] (mice, dose administered 1000 mg/kg/p.o.) came to 0%.
As for `N#CCCOc1ccc(N2CC(CO)OC2=O)cc1` (centres unmarked) [770 131, 3-(2-p-cyanoethoxyphenyl) 5-hydroxymethyl 2-oxazolidinone], the values for the ED50 in data set [1], in data set [2] and in data set [3] were 3 mg/kg, 2.5 mg/kg and 5.5 mg/kg, respectively. In addition, the mortality in data set [4] (1000 mg/kg) amounted to 0%.
With `N#Cc1cccc(COc2ccc(N3CC(CO)OC3=O)cc2)c1` (centres unmarked) [770 222], the ED50 in data set [1] was determined as 1.2 mg/kg; in data set [2], 2.8 mg/kg; in data set [3], 5.2 mg/kg. The mortality in data set [4] (1000 mg/kg) was 0%.
Regarding `O=C1OC(CO)CN1c1ccc(OCc2cccc([N+](=O)[O-])c2)cc1` (centres unmarked) [770 234], the ED50 in data set [1] is 0.7 mg/kg; in data set [2], 1.5 mg/kg; in data set [3] it was 9 mg/kg. In addition, the mortality in data set [4] (1000 mg/kg) worked out at 0%.
Regarding `O=C1OC(CO)CN1c1ccc(OCc2cccs2)cc1` (centres unmarked) [770 673], the values for the ED50 in data set [1], in data set [2] and in data set [3] were 35 mg/kg, 16 mg/kg and 8 mg/kg, respectively.
Regarding `O=C1OC(CO)CN1c1ccc(OCc2ccc(F)c([N+](=O)[O-])c2)cc1` (centres unmarked) [770 955], the ED50 in data set [1] amounted to 7 mg/kg; in data set [2], 13 mg/kg. This compound also gave a mortality in data set [4] (2000 mg/kg) of 17%.
For the compound `CC(C)CCOc1ccc(N2CC(CO)OC2=O)cc1` (centres unmarked) [771 082], the ED50 in data set [1] came to 0.7 mg/kg; in data set [2] it was 1.3 mg/kg. In addition, the LD50 in data set [4] was above 2000 mg/kg.
For `O=C1OC(CO)CN1c1ccc(OCCC2CCCC2)cc1` (centres unmarked) [771 245] the same measures were 2 mg/kg, 1.5 mg/kg and above 2000 mg/kg.
For `O=C1OC(CO)CN1c1ccc(OCC2CCOCC2)cc1` (centres unmarked) [771 301] the same measures were 3 mg/kg, 1.9 mg/kg and above 2000 mg/kg.
Consider `Cc1cccc(N2CC(CO)OC2=O)c1` (centres unmarked) [TOLOXATONE, reference compound], for which the ED50 in data set [1] is 50 mg/kg; in data set [2], 60 mg/kg; in data set [3], 28 mg/kg.
